These results are taken from paper PMC9569447 (International Journal of Molecular Sciences, 2022).

Each structure is given as a SMILES string. Where two headings read alike, the source gives them in different places.

Data set [1] deals with diet-induced obese (DIO) Sprague Dawley rats. The data set is described as follows: Post-treatment serum levels after the 22-day treatment. The data set is classed as in vivo, rat. Conditions: serum, 2 h post final injection after 22 days; mean ± SEM; n = 6 (Oxytocin n = 4). The protocol:
Cardiac puncture was used to collect blood for analysis 2 h post final injection. Commercially available enzyme-linked immunosorbent assays (ELISA) were used for quantitative assessment of leptin (cat. # EZRL-83K; MilliporeSigma, Burlington, MA, USA), insulin (cat. # EZRMI-13K; MilliporeSigma, Burlington, MA, USA), and adiponectin (cat. # EZRAPD-62K MilliporeSigma, Burlington, MA, USA). Serum samples were diluted 1:500 for the adiponectin ELISA using the sample diluent provided with the kit. All ELISAs were completed following the manufacturers recommendations. Levels of glucose, cholesterol (total, HDL, and calculated LDL), triglycerides, ALT, and AST were determined in the serum on a Modular P chemistry analyzer (Roche Diagnostics, Risch-Rotkreuz, Switzerland) by the University of Washington Nutrition and Obesity Research Center’s Analytic Core (Seattle, WA, USA).

The conditions of data set [2]: mouse, in vivo, sc; cited from earlier work.
For data set [3] the following is noted: rat, in vivo, sc; cited from earlier work.
For data set [4] the following is noted: native OXT; cited from earlier work. The source says: This OXT analog is a full agonist at OXT receptor, and it addressed some of the limitations of using OXT as a weight loss therapeutic.

In the case of `CC[C@H](C)[C@@H]1NC(=O)[C@H](Cc2ccc(O)cc2)NC(=O)[C@@H](N)CSSC[C@@H](C(=O)N2CCC[C@H]2C(=O)N[C@@H](CC(C)C)C(=O)NCC(N)=O)NC(=O)[C@H](CC(N)=O)NC(=O)[C@H](CCC(N)=O)NC1=O` [OXT, oxytocin], in data set [1], the ALT is reported as 40 ± 5 U/L and the AST turned out to be 128 ± 22 U/L. Moreover, in data set [2], the Cmax is recorded as 216 nM, the “Free Cmax” value is on record as 191 nM, the T1/2 is 30 min and the Tmax is 15 min. In data set [3], the CLplasma was 17.1 mL/min/kg, the T1/2 is 7.2 min and the Vd is 0.085 L/kg. In addition, the half-life in vivo in data set [4] is given as about 5 min.

Broadly, the Cmax is the peak of the concentration-time curve. As a reminder, the Tmax is the time from dosing to the highest level.
